Measured values taken from US10220025B1, “Self-emulsifying formulation of CARP-1 functional mimetics” (Florida A&M University, priority 2016, dated 2019).
Entries after “also recorded” stand apart in the source; their conditions may differ. Where two headings read alike, the source gives them in different places.

Tests used:
[1] = system: TNBC and NSCLC cells; conditions: cited from earlier work
[2] = system: MDA-MB-468 TNBC cells, wild type; assay: MTT viability assay, parental MDA-MB-468; assay type: cell-based, human; conditions: for inhibition of viability compared with CFM-4: 20 μM, 24 h, FIG. 3A
Method: (§2) In vitro inhibition of cell growth was assessed by MTT (3-[4, 5-dimethyltiazol-2-yl]-2.5-diphenyl tetrazolium bromide) reagent. Cells (5×10^3) were seeded in a 96-well culture plate and subsequently treated with respective agents at different concentrations as mentioned. Control cells were treated with 0.1% DMSO in culture medium. After treatment, the cells were incubated with 1 mg/ml of MTT reagent at 37° C. for 2-4 hours and then MTT was removed and 50 μL of DMSO was added, followed by colorimetric analysis using a multi-label plate reader at 560 nm (Victor3; PerkinElmer, Wellesley, Mass., USA).

[3] = system: HeLa cervical cancer cells; assay: MTT viability assay, HeLa; assay type: cell-based; conditions: 20 μM; 24 h; FIG. 3A
Excerpt: The current inventors' previous studies have indicated cancer cell growth inhibitory properties of CFMs in particular CFM-4 and CFM-5 [Puliyappadamba et al.]. […] J. Biomed. Nanotechnol. 2015; 11:1608-1627]. […] J. Biomed. Nanotechnol. 2015; 11:1608-1627]. On the basis of these findings, it was speculated that solubility and/or potency of the CFM-4 scaffold could be improved for its utility as a novel anti-TNBC molecule. To address this possibility, twelve (12) additional analogs of CFM-4 (Table 2) were synthesized using medicinal chemistry based structure activity relationship (SAR) studies. Each of the analog was suspended in DMSO, and their potency was evaluated in cell culture studies utilizing HeLa cervical cancer, MDA-MB-468 TNBC, and H2461 malignant pleural mesothelioma (MPM) cells by MTT based assays. […] Moreover, a 10 μM dose of CFM-4 inhibited MDA-MB-231 and MDA-MB-468 viabilities by ˜30% and 45%, respectively.

[4] = system: TNBC cells; assay: MTT viability assay, parental TNBC cells (lines not singled out); assay type: cell-based
Method: as §2

[5] = system: parental and drug-resistant TNBC and SKBR-3 cells; assay: soft-agar clonogenic assay; assay type: cell-based; conditions: 10 μM; FIGS. 11D, 12C, 12D, 13C
Method: A soft-agar sandwich assay was performed. Cells were sandwiched between 0.6% and 0.3% agarose in DMEM medium containing 5% FBS in a six-well chamber (500 cells/chamber), and treated with buffer (Control), or respective agent for noted time and dose at 37° C. humidified CO2 incubator. The colonies from multiple random fields were counted, compared to control and photographed essentially as described before [Jamal S, Cheryan V T, Muthu M, Munie S, Levi E, Ashour A E, Pass H I, Wali A, Singh M, Rishi A K. CARP-1 functional mimetics are a novel class of small molecule inhibitors of malignant pleural mesothelioma cells. PLos One. 2014; 9:e891; Ashour A E, Jamal S, Cheryan V T, Muthu M, Zoheir K M A, Alafeefy A M, Abd-allah A R, Levi E, Tarca A L, Polin L A, Rishi A K. CARP-1 functional mimetics: A novel class of small molecule inhibitors of medulloblastoma cell growth. PLoS One. 2013; 8:e66733; Zhang L, Levi E, Majumder P, Yu Y, Aboukameel A, Du J, Xu H, Mohammad R M, Hatfield J S, Wali A, Adsay V, Majumdar A P N, Rishi A K. Transactivator of transcription tagged cell cycle and apoptosis regulatory protein-1 peptides suppress growth of human breast cancer cells in vitro and in vivo. Mol Cancer Ther. 2007; 6:1661-1672].

[6] = system: MDA-MB-231 TNBC cells, wild type; assay: MTT viability assay, parental MDA-MB-231; assay type: cell-based, human
Method: as §2

[7] = system: Adriamycin-resistant (ADR-R) MDA-MB-468 sublines; assay: MTT viability assay, ADR-resistant MDA-MB-468 sublines; assay type: cell-based, human; conditions: ADR-resistant MDA-MB-468 subline 1; FIG. 5E
Method: (§1) Human TNBC MDA-MB-468 and MDA-MB-231, and mouse TNBC 4T1 cells were cultured in the chronic presence (>10 months) of Doxorubicin. The parental, wild-type cells were initially treated with 200 nM Doxorubicin for 2-3 weeks, followed by escalation to 400 nM, 1 μM, and 2 μM doses over a period of 3-4 weeks for each dose till resistance developed and the cells became well adapted to growth in […] of Doxorubicin for their routine culture. In the case of Cisplatin however, the human TNBC MDA-MB-468 and MDA-MB-231 were initially cultured in continuous presence of 1 μM Cisplatin for 3-4 weeks, and the dose was escalated to 1.5 μM and 3 μM over periods of 3-4 weeks for each dose till resistance developed and cells became adapted to routine culture in 3 μM dose. Subsequent, routine maintenance of the resistant cells in the presence of the respective drug was continued and multiple, resistant sublines for each of the TNBC cells were isolated and characterized for their growth inhibitory (GI)50 dose of respective therapeutic by the MTT-based viability assays as below.

[8] = system: HUVECs; assay: in vitro tubule formation (angiogenesis) assay; assay type: cell-based, human; conditions: 12 hours; FIG. 11A
Method: The growth of tubules was monitored over a period of 12 hours. The cells growth in the scratch assay was recorded by photography. Representative photomicrographs of control and treated cells are presented.
It was next investigated whether CFM-4.16 inhibited TNBC cell migration and growth as colonies in soft agar and 3-dimensional cultures in vitro. In addition, an in vitro tubule formation assay was conducted to determine anti-angiogenic properties of CFM-4.16. […] Moreover, treatments with CFM-4 or CFM-4.16 prevented the parental as well as drug (ADR- or cisplatin-) resistant TNBC sublines and the parental and Herceptin-resistant, Her-2-positive SKBR-3 cells from growing in the areas of wound caused by a scratch (FIGS. 11B, 11C, 12A, 12B, 13A, and 13B).

[9] = system: TNBC and non-small cell lung cancer cell-derived xenografts; conditions: SCID mice; cited from earlier work
[10] = system: Src, MET, and STAT3 kinases in TNBC cells; assay: Western blot, oncogenic tyrosine kinases; assay type: cell-based; conditions: parental and drug-resistant human and murine TNBC cells
Method: For protein expression analysis, Western blot (WB) experiments were performed according to the standard procedures. The cells were either untreated or treated with various agents either alone or in combinations as indicated. Following treatment durations, the cells were lysed in cell lysis (10×) buffer (#9803; cell signaling) containing 0.1% of protease and phosphatase inhibitor cocktail (Sigma) for 20 min at 4° C. The lysates were centrifuged at 14,000 rpm at 4° C. for 15-20 min to remove debris. Protein concentrations of whole cell lysates were determined using the Protein Assay Kit. Supernatant proteins, 50-100 μg from each sample, were separated by SDS-polyacrylamide gel electrophoresis (SDS-PAGE) and transferred to polyvinylidene difluoride (PVDF) membrane (Bio-rad, Hercules, Calif.) by standard procedures. […] The antibody-bound proteins were visualized by treatment with the chemiluminescence detection reagent according to manufacturer's instructions, followed by exposure to X-ray film (Denville Scientific Inc.). The same membranes were re-probed with the anti-β-actin or anti-α-tubulin antibody, which was used as an internal control for protein loading.

[11] = system: parental and drug-resistant TNBC and SKBR-3 cells; assay: scratch/wound healing cell migration assay; assay type: cell-based; conditions: FIGS. 11B, 11C, 12A, 12B, 13A, 13B
Method: The TNBC cells migration in the absence or presence of CFMs was measured by the “scratch/wound healing” assay. Cells were seeded in a 6-well plate (˜10,000 cells/well), and when attached, a scratch was created in the cell monolayer using sterile pipette tip. The cells were then allowed to continue growing in the absence (Control) or presence of noted dose of each of the agents for indicated time periods. The cells were photographed at the beginning and at regular intervals during the treatment period, and the images from control cells were compared with the treated cells to determine the migration of the cells essentially as described before [Liang C C, Park A Y, Guan J L In vitro scratch assay: a convenient and inexpensive method for analysis of cell migration in vitro. Nat Protoc. 2007; 2:329-33]. The photomicrographs of the cells were recorded under different magnifications utilizing Zeiss microscope with attached 35 mm camera.

[12] = solubility observations; assay type: physicochemical
[13] = system: Cisplatin-resistant (Cis-R) MDA-MB-231 sublines; assay: MTT viability assay, Cisplatin-resistant MDA-MB-231 sublines; assay type: cell-based, human
Method: as §1

[14] = system: Cisplatin-resistant (Cis-R) MDA-MB-468 sublines; assay: MTT viability assay, Cisplatin-resistant MDA-MB-468 sublines; assay type: cell-based, human
Method: as §1

[15] = system: 4T1 TNBC cells, wild type; assay: MTT viability assay, parental 4T1; assay type: cell-based, mouse; conditions: FIG. 10; single agent
Method: as §2

[16] = system: parental and drug-resistant human TNBC cells; conditions: human, 12 h
Method: Control cells were treated with 0.1% DMSO in culture medium.

In the case of `O=C1N(Cc2cccc3ccccc23)c2ccccc2C12NN=C(c1ccccc1)S2` (stereo not shown) [CFM-4.6], the “growth of TNBC and NSCLC cells” value [1] is listed as “inhibited growth”.

With `O=C1N(Cc2ccc3ccccc3c2)c2ccccc2C12NN=C(c1ccccc1)S2` (stereo not shown) [CFM-4.8] the “inhibition of viability compared with CFM-4” value [2] was “greater inhibition of viability”.

With `COc1ccc2c(c1)C1(NN=C(c3ccccc3)S1)C(=O)N2Cc1ccccc1Cl` (stereo not shown) [CFM-4.11] the “inhibition of viability compared with CFM-4” value [2] was “greater inhibition of viability”.

With `COc1cccc(C2=NNC3(S2)C(=O)N(Cc2ccccc2Cl)c2ccccc23)c1` (stereo not shown) [CFM-4.17] the “inhibition of viability compared with CFM-4” value [3] was “greater inhibition of viability”, the “activity relative to parent compound CFM-4 or other analogs” value ([4]; SAR screen of twelve analogs) was “superior” and the “inhibition of viability compared with CFM-4” value [2] was “greater inhibition of viability”.

In the case of `O=C1N(Cc2ccccc2Cl)c2ccccc2C12NN=C(c1ccccc1)S2` (stereo not shown) [CFM-4], the “colonies formed in soft agar” value [5] is reported as “significant reduction in size and number of colonies”, the “inhibition / loss of cell viability” value ([6]; 10 μM dose) is reported as ~30% and the “effect of siRNA-mediated depletion of CARP-1 on growth inhibition by the compound” value [7] is reported as “interfered with growth inhibition”. The “tubule formation by HUVECs compared with untreated control” value [8] was “disruption of tubule formation”, the “xenograft growth inhibition / T/C, intravenous DMSO+cremophor preparation” value [9] was “failed to inhibit growth; also recorded: lack therapeutic T/C values” and the “inhibition / loss of cell viability” value ([2]; 10 μM dose) was ~45%. The “activation and/or expression of MET and Src tyrosine kinases” value [10] was “reduced activation and/or expression”, the “growth of cells in the areas of wound caused by a scratch” value [11] was “prevented” and the aqueous solubility [12] was “poor aqueous solubility”. For the same compound, the “growth of TNBC and NSCLC cells” value [1] was “inhibited growth”.

With `N.N.[Cl][Pt][Cl]` [Cisplatin] the GI50 ([13]; 72 h, Cis-R Clones 1-6, read-out: GI50) was ≥ 150 µM, the “GI50 dose higher than wild-type, parental counterparts” value ([13]; cisplatin-resistant MDA-MB-231 vs parental) was ≥ 90 fold and the GI50 ([13]; read-out: GI50 dose, Cisplatin-resistant MDA-MB-231 sublines) was ≥ 150 µM. It also gave a GI50 ([6]; 72 h, Wild type) of ~1.65 µM, a GI50 ([14]; 72 h, Cis-R Clone 1-2, read-out: GI50) of ~6.6 µM and a GI50 ([14]; 72 h, Cis-R Clone 3, read-out: GI50) of ~12 µM. For the same compound, the GI50 ([14]; 72 h, Cis-R Clones 4-6, read-out: GI50) was ~15 µM, the “GI50 dose higher than wild-type, parental cells” value ([14]; cisplatin-resistant MDA-MB-468 vs parental) was 4-9 fold and the GI50 ([14]; read-out: GI50 dose, Cisplatin-resistant MDA-MB-468 sublines) was 6 to 15 µM. The GI50 ([4]; 72 h treatment period, read-out: GI50 doses, both the parental TNBC cell lines) was ~1.65 µM, the GI50 ([4]; parental cells, read-out: GI50 dose, parental cells) was 1.65 µM and the GI50 ([2]; 72 h, Wild type) was ~1.65 µM.

In the case of `Cc1nc(Nc2ncc(C(=O)Nc3c(C)cccc3Cl)s2)cc(N2CCN(CCO)CC2)n1` [Dasatinib], the “reduction / loss of viability” value [15] is reported as ~60% and the “loss of viability, single agent” value [16] is reported as 20-40%.

With `O=C1NC(=O)[C@@H](c2cn3c4c(cccc24)CCC3)[C@@H]1c1c[nH]c2ccccc12` [Tivatinib] the “loss of viability, single agent” value [16] was 20-40%.
